Assays:
Type in all cases: functional, organism-based
Rattus norvegicus [1] = species on record: Rattus norvegicus; experiment: % chelator inside the intestinal sac in animal 2 at lower (distal) segment of the intestine starting from the proximal end
Rattus norvegicus [2] = species on record: Rattus norvegicus; experiment: % chelator inside the intestinal sac in animal 2 at upper segment of the intestine starting from the proximal end.
Rattus norvegicus [3] = species on record: Rattus norvegicus; experiment: % chelator inside the intestinal sac in animal 1 at upper segment of the intestine starting from the proximal end.
Rattus norvegicus [4] = species on record: Rattus norvegicus; experiment: % chelator inside the intestinal sac in animal 1 at middle segment of the intestine starting from the proximal end.
Rattus norvegicus [5] = species on record: Rattus norvegicus; experiment: % chelator inside the intestinal sac in animal 3 at middle segment of the intestine starting from the proximal end.
Rattus norvegicus [6] = species on record: Rattus norvegicus; experiment: % chelator inside the intestinal sac in animal 3 at lower (distal) segment of the intestine starting from the proximal end
Rattus norvegicus [7] = species on record: Rattus norvegicus; experiment: % chelator inside the intestinal sac in animal 2 at middle segment of the intestine starting from the proximal end.
Rattus norvegicus [8] = species on record: Rattus norvegicus; experiment: % chelator inside the intestinal sac in animal 3 at upper segment of the intestine starting from the proximal end.
Rattus norvegicus [9] = species on record: Rattus norvegicus; experiment: % chelator inside the intestinal sac in animal 1 at lower (distal) segment of the intestine starting from the proximal end

O=C(NCCCCNCCCNC(=O)c1cccc(O)c1O)c1cccc(O)c1O
Chelator (Rattus norvegicus [1]): 32% | Chelator (Rattus norvegicus [2]): 33% | Chelator (Rattus norvegicus [3]): 42% | Chelator (Rattus norvegicus [4]): 40% | Chelator (Rattus norvegicus [5]): 44% | Chelator (Rattus norvegicus [6]): 50% | Chelator (Rattus norvegicus [7]): 35% | Chelator (Rattus norvegicus [8]): 32% | Chelator (Rattus norvegicus [9]): 44%

— ChEMBL document CHEMBL1121544, “Synthesis, absorption, and toxicity of N1,N8-bis(2,3-dihydroxybenzoyl)spermidine, a potent iron chelator” (J Med Chem, 1980)
